System: TNF-α and IL-6 production in whole human blood
Test: Multiplexed cytokine assay ex vivo in human blood stimulated with LPS
Assay type: cell-based
Details: versus polymyxin B
Description: The activity of a subset of active Lys-spermine compounds is examined for their ability to inhibit TNF-α and IL-6 production in whole human blood, stimulated ex vivo with LPS.
100 μl aliquots of fresh whole blood, anticoagulated with EDTA, obtained by venipuncture from healthy human volunteers with informed consent and as per guidelines approved by the Human Subjects Experimentation Committee, is exposed to an equal volume of 50 ng/ml of E. coli 0111:B4 LPS, with graded concentrations of test compounds diluted in saline for 4 h in a 96-well microtiter plate. The effect of the compounds on modulating cytokine production examined using a FACSArray multiplexed flow-cytometric bead array (CBA) system (Becton-Dickinson-Pharmingen, San Jose, Calif.). The system uses a sandwich ELISA-on-a-bead principle,^55;56 and is comprised of 6 populations of microbeads that are spectrally unique in terms of their intrinsic fluorescence emission intensities (detected in the FL3 channel of a standard flow cytometer). […] After washing the beads, a mixture of optimally paired second antibodies conjugated to phycoerythrin is added which then forms a fluorescent ternary complex with the immobilized cytokine, the intensity (measured in the FL2 channel) of which is proportional to the cytokine concentration on the bead. […] The data are analyzed in the CBA software suite that is integral to the FACSArray system.

Compound: CCCCCCCCCCCCCCCCCC(=O)NCCCCC(N)C(=O)NCCCNCCCCNCCCN [Compound 8, D-Lys-ε-(stearoyl)-N^1-spermine]
- inhibitory potency on TNF-α and IL-6 production: almost as potent as polymyxin B

Reference: patent US20060122279A1, “Hydrophobic polyamine amides as potent lipopolysaccharide sequestrants” (priority 2004, published 2006)
